# Test results from ChEMBL document CHEMBL1201862, “PubChem BioAssay data set” (2004).
#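 Values below derive from 48-hour exposures of cells grown in 96-well plates, with endpoints linearly interpolated between the two concentrations bracketing the appropriate inhibition level. Abbreviation: GI50, concentration required for 50% inhibition of growth.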 Activity calls are given as the source filed them. Cut-off read from the data, not from the text of the source: active = GI50 up to about 1.1 µM and inactive = higher.
# Assays:
# Assay in all cases: growth of human tumour cells (NCI), 48 h
# 786-0 = system: 786-0
# A549 = system: A549
# DLD-1 = system: DLD-1
# DMS-114 = system: DMS-114
# DMS-273 = system: DMS-273
# HCT-15 = system: HCT-15
# HOP-18 = system: HOP-18
# Malme-3M = system: Malme-3M
# NCI-H23 = system: NCI-H23
# NCI-H460 = system: NCI-H460
# RXF 393 = system: RXF 393
# SK-MEL-2 = system: SK-MEL-2
# SR = system: SR
# TK-10 = system: TK-10
# UACC-257 = system: UACC-257
# XF498 = system: XF498
# MDA-MB-231 = system: MDA-MB-231
# MDA-MB-435 = system: MDA-MB-435
# MDA-N = system: MDA-N
# T47D = system: T47D
SMILES,GI50 (786-0),GI50 (A549),GI50 (DLD-1),GI50 (DMS-114),GI50 (DMS-273),GI50 (HCT-15) [µM],GI50 (HOP-18),GI50 (Malme-3M),GI50 (NCI-H23),GI50 (NCI-H460),GI50 (RXF 393),GI50 (SK-MEL-2),GI50 (SR),GI50 (TK-10),GI50 (UACC-257),GI50 (XF498),GI50 (MDA-MB-231),GI50 (MDA-MB-435),GI50 (MDA-N),GI50 (T47D)
CC(C)C(=O)N1C(=O)O[C@@H](c2ccccc2)[C@H]1C,> 100 µM (inactive),> 100 µM (inactive),> 100 µM (inactive),> 100 µM (inactive),> 100 µM (inactive),> 100,> 100 µM (inactive),> 100 µM (inactive),> 100 µM (inactive),> 100 µM (inactive),> 84.1 µM (inactive),> 100 µM (inactive),> 100 µM (inactive),> 100 µM (inactive),> 100 µM (inactive),> 100 µM (inactive),–,–,–,–
N#C[C@@H](c1nc2ccccc2s1)c1ncccc1[N+](=O)[O-],6.19 µM (inactive),4.4 µM (inactive),–,–,–,7.13,–,2.87 µM (inactive),3.7 µM (inactive),5.62 µM (inactive),5.87 µM (inactive),4.12 µM (inactive),4.67 µM (inactive),4.79 µM (inactive),2.12 µM (inactive),–,7.83 µM (inactive),13.4 µM (inactive),7.46 µM (inactive),4.18 µM (inactive)
O=S(O)CCCCSSCCCCS(=O)(=O)S,> 100 µM (inactive),40.7 µM (inactive),> 100 µM (inactive),39.4 µM (inactive),50.9 µM (inactive),59,84.3 µM (inactive),17.6 µM (inactive),53.6 µM (inactive),64.3 µM (inactive),43.3 µM (inactive),35.7 µM (inactive),–,42.6 µM (inactive),21.1 µM (inactive),15.3 µM (inactive),–,–,–,–
COC(=O)C(=O)C(C(=O)Nc1cccc(C)c1C)C1Sc2ccccc2NC1=O (stereo unspecified),–,10.9 µM (inactive),11.2 µM (inactive),5.83 µM (inactive),11.8 µM (inactive),11.4,> 25 µM (inactive),6.37 µM (inactive),> 25 µM (inactive),13.4 µM (inactive),7.55 µM (inactive),5.75 µM (inactive),13.7 µM (inactive),> 25 µM (inactive),16.4 µM (inactive),> 25 µM (inactive),–,–,–,–
COc1cc(C2c3cc4c(cc3[C@@H](Nc3cccc([N+](=O)[O-])c3)C3COC(=O)[C@H]23)OCO4)cc(OC)c1O (stereo partly specified),–,0.2 µM (active),1.93 µM (inactive),2.7 µM (inactive),0.615 µM (active),1.39,3.37 µM (inactive),2.62 µM (inactive),1.55 µM (inactive),0.02 µM (active),2.21 µM (inactive),5.4 µM (inactive),–,–,4.73 µM (inactive),3.13 µM (inactive),–,–,–,–
COC(=O)/C=C\n1nc(Br)c(=O)[nH]c1=O,–,> 100 µM (inactive),–,–,–,85.7,–,> 100 µM (inactive),> 100 µM (inactive),> 100 µM (inactive),83.9 µM (inactive),> 100 µM (inactive),> 100 µM (inactive),> 100 µM (inactive),> 100 µM (inactive),–,> 100 µM (inactive),> 100 µM (inactive),> 100 µM (inactive),> 100 µM (inactive)
COc1cc(S(=O)(=O)Nc2ccc(-c3csc(N4C(=O)C(C)SC4c4cccc(Oc5ccccc5)c4)n3)cc2)ccc1Cl (stereo unspecified),–,> 100 µM (inactive),–,–,–,36.9,–,> 100 µM (inactive),33 µM (inactive),–,17.3 µM (inactive),86.9 µM (inactive),26.3 µM (inactive),–,–,–,–,32.6 µM (inactive),27.7 µM (inactive),29.6 µM (inactive)
O=S(O)c1cc(Cl)cc(Cl)c1OCc1ccccc1,–,–,> 100 µM (inactive),> 100 µM (inactive),–,–,–,> 100 µM (inactive),> 100 µM (inactive),> 100 µM (inactive),> 100 µM (inactive),> 100 µM (inactive),> 100 µM (inactive),> 100 µM (inactive),> 100 µM (inactive),> 100 µM (inactive),–,–,–,–
O=c1[nH]cnc2sc(=S)c3c(c12)CCC3,15.5 µM (inactive),68.7 µM (inactive),–,–,–,29,–,37.2 µM (inactive),23.5 µM (inactive),44.1 µM (inactive),21.9 µM (inactive),> 100 µM (inactive),12.1 µM (inactive),25.2 µM (inactive),33.3 µM (inactive),–,32.6 µM (inactive),81.8 µM (inactive),–,19.1 µM (inactive)
COCC1N=C(c2cc(OC)c(OC)c(OC)c2-c2cc3c(cc2[C@@H](C)O)OCO3)O[C@H]1c1ccccc1 (stereo partly specified),–,> 57.3 µM (inactive),> 89.7 µM (inactive),–,> 71.9 µM (inactive),> 100,> 86.5 µM (inactive),> 80.5 µM (inactive),51.6 µM (inactive),> 71.8 µM (inactive),33.7 µM (inactive),> 53.3 µM (inactive),–,–,> 100 µM (inactive),–,–,–,–,–
Cc1cc(C)c(C2=NO[C@@H]3[C@H]2C(=O)C=C2N(Cc4ccccc4)CCO[C@@]23O)c(C)c1,–,> 100 µM (inactive),> 100 µM (inactive),–,> 100 µM (inactive),> 100,> 100 µM (inactive),> 100 µM (inactive),> 100 µM (inactive),> 100 µM (inactive),> 100 µM (inactive),> 100 µM (inactive),–,–,> 100 µM (inactive),> 100 µM (inactive),–,–,–,–
CC(=O)N(C(=O)CC(=O)N1N=C(C)C(/N=N/c2cccc([N+](=O)[O-])c2)C1=O)c1ccc(Cl)cc1 (stereo unspecified),> 10 µM (inactive),> 10 µM (inactive),–,–,–,> 10,–,> 10 µM (inactive),7.03 µM (inactive),–,–,–,> 10 µM (inactive),> 10 µM (inactive),> 10 µM (inactive),–,> 10 µM (inactive),> 10 µM (inactive),> 10 µM (inactive),> 10 µM (inactive)
CCOC(=O)C(Cc1c(-c2[nH]c3ccccc3c2CC(NC(=O)CNC(C)=O)C(=O)OCC)[nH]c2ccccc12)NC(=O)CNC(C)=O (stereo unspecified),–,> 100 µM (inactive),–,–,–,> 100,–,20 µM (inactive),> 100 µM (inactive),> 100 µM (inactive),–,18.6 µM (inactive),40.4 µM (inactive),> 100 µM (inactive),27.4 µM (inactive),–,16.5 µM (inactive),> 100 µM (inactive),> 100 µM (inactive),–
Clc1ccc(N/N=C(\c2ccccc2)c2ccccn2)nc1,0.0367 µM (active),0.387 µM (active),–,–,–,< 0.0183,–,< 0.01 µM (active),0.0526 µM (active),–,2.2 µM (inactive),3.85 µM (inactive),0.114 µM (active),–,< 0.0158 µM (active),–,< 0.0187 µM (active),0.627 µM (active),2.48 µM (inactive),< 0.01 µM (active)
O=S(O)c1cc(Cl)cc(Cl)c1O,–,–,> 100 µM (inactive),80.9 µM (inactive),–,–,–,> 100 µM (inactive),> 100 µM (inactive),> 100 µM (inactive),> 100 µM (inactive),> 100 µM (inactive),–,> 100 µM (inactive),> 100 µM (inactive),> 100 µM (inactive),–,–,–,–
CC1CC=CC(O)C1 (stereo unspecified),–,> 100 µM (inactive),> 100 µM (inactive),> 100 µM (inactive),> 100 µM (inactive),> 100,> 100 µM (inactive),> 100 µM (inactive),> 100 µM (inactive),> 100 µM (inactive),> 100 µM (inactive),> 100 µM (inactive),–,–,> 100 µM (inactive),> 100 µM (inactive),–,–,–,–
OCC1C2C=CC(O2)[C@H]1CO (stereo partly specified),> 100 µM (inactive),> 100 µM (inactive),> 100 µM (inactive),92.7 µM (inactive),> 100 µM (inactive),> 100,> 100 µM (inactive),> 100 µM (inactive),–,> 100 µM (inactive),42.4 µM (inactive),–,> 100 µM (inactive),> 100 µM (inactive),> 100 µM (inactive),–,–,–,–,–
CCOCc1cc(=O)c2c(O)cc3c(c2o1)CCC(C)(C)O3,–,–,> 100 µM (inactive),> 100 µM (inactive),> 100 µM (inactive),> 100,> 100 µM (inactive),> 100 µM (inactive),> 100 µM (inactive),> 100 µM (inactive),–,> 100 µM (inactive),–,> 100 µM (inactive),–,–,–,–,–,–
CN(C)CCNC(=O)c1ccc(Cl)c2ccc(-c3ccccc3)nc12,–,2.92 µM (inactive),2.92 µM (inactive),–,3 µM (inactive),3.42,3.26 µM (inactive),3.52 µM (inactive),5.38 µM (inactive),2.07 µM (inactive),5.38 µM (inactive),7.67 µM (inactive),–,–,4.04 µM (inactive),3.16 µM (inactive),–,–,–,–
